One may read the stoichiometry N as a count of units in the complex or per binding partner.

One test deals with T1, Tel1 (Saccharomyces cerevisiae, UniProt P38110).
T1 construct: full-length 2787 residues, homodimer; expressed as GST-Tel1 (pBL602, Gal promoter) in S. cerevisiae PY265
The experiment in a line: cryo-EM structure. The conditions noted are these: 3.7-3.9 A resolution; 1 mM AMP-PNP, 4 mM Mg(OAc)2, pH 7.4, on ice; kinase active site, one Mg2+ modelled, 1 ligand per monomer. Format: binding.

The target in test [1] is Saccharomyces cerevisiae Tel1 (Saccharomyces cerevisiae) (UniProt P38110). Kind of test: cryo-EM structure; Tel1 100 nM with 1 mM AMP-PNP and 4 mM Mg(OAc)2, diluted into 50 mM Tris-HCl, 50 mM NaCl, pH 7.4; C2 symmetry applied; homodimer.

T1 sequence (P38110 whole entry): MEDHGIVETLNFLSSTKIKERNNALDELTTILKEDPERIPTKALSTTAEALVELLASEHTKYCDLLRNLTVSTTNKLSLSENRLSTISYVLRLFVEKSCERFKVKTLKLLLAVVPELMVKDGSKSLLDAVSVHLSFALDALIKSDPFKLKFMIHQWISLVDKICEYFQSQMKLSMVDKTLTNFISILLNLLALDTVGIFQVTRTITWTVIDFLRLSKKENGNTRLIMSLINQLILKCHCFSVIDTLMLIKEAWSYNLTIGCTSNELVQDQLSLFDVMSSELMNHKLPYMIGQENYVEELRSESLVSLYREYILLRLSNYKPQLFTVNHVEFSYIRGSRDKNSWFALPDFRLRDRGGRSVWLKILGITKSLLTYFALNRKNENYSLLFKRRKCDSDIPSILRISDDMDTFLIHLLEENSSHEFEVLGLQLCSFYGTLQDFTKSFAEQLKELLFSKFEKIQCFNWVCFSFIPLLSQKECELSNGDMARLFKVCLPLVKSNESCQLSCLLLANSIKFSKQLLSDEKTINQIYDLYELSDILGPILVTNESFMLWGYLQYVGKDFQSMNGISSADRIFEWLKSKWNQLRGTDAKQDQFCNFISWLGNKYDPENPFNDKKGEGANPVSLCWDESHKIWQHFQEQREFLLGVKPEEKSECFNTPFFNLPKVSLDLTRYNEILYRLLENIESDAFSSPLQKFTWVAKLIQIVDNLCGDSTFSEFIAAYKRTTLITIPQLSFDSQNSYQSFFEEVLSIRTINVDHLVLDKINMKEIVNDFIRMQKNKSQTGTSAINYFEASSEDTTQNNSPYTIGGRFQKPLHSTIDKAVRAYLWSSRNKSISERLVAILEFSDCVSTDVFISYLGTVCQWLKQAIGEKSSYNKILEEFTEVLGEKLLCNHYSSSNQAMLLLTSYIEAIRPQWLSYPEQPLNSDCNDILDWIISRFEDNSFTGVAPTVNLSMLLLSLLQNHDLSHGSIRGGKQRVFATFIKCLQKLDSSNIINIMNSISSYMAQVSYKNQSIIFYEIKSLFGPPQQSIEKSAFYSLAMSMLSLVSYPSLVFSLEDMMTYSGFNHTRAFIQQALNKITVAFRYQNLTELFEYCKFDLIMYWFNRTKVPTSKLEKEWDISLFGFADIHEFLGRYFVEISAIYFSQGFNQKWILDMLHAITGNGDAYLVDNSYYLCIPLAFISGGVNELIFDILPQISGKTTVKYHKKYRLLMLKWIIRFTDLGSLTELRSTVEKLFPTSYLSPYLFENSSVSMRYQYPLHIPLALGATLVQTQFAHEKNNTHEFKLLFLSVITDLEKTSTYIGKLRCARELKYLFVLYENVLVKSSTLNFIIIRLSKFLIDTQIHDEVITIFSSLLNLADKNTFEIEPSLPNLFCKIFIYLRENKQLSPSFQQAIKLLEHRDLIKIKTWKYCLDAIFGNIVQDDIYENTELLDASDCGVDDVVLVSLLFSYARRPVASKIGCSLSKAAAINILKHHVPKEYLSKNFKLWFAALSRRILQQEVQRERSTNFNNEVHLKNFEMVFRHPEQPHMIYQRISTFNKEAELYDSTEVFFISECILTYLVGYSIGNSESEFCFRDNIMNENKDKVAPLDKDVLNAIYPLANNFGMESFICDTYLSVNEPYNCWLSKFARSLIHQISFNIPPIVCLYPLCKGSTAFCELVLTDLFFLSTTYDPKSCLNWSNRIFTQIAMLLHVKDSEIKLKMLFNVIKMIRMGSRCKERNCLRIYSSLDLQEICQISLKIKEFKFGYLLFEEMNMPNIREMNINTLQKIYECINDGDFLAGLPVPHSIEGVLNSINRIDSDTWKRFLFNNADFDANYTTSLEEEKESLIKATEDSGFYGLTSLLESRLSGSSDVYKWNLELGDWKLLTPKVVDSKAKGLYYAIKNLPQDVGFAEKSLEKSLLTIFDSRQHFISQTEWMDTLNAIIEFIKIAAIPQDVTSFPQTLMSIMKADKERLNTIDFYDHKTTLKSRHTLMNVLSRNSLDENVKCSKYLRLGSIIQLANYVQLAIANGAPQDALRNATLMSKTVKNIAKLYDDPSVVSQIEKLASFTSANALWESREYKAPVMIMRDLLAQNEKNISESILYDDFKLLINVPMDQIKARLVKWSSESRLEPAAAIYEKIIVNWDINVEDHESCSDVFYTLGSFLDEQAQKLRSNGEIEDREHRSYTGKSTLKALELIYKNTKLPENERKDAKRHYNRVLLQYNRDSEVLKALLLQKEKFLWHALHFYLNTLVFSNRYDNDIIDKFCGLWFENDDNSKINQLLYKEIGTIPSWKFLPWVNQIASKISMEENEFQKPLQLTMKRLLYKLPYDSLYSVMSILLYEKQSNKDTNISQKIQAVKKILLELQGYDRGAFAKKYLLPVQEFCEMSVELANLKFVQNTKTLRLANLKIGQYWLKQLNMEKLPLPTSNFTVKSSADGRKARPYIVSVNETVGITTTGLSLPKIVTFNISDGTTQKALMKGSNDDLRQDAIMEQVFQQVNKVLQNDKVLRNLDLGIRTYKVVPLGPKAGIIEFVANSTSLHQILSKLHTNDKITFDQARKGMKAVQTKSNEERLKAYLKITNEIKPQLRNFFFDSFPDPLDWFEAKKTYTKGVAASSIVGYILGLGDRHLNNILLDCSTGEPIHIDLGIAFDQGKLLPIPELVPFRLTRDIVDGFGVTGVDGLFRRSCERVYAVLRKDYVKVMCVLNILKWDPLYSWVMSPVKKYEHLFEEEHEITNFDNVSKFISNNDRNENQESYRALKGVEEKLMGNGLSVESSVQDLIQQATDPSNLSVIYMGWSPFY

As to `Nc1ncnc2c1ncn2[C@@H]1O[C@H](COP(=O)(O)OP(=O)(O)NP(=O)(O)O)[C@@H](O)[C@H]1O` [AMP-PNP], at Tel1, the cryo-EM structure entry is “clear density for AMP-PNP”.

The compound “Saccharomyces cerevisiae Tel1, P38110 1-2787” returned a stoichiometry N in test [1] of 2.

Values taken from PMC6945111, “Cryo-EM Structure of Nucleotide-Bound Tel1^ATM Unravels the Molecular Basis of Inhibition and Structural Rationale for Disease-Associated Mutations” (Structure(London, England:1993), 2020).
